Read-outs that look alike come from different tables or passages of the source.
Key:
viable cells in culture [1] = tested on: viable cells in culture
[2] = tested on: human TERT expression (hTERT mRNA); test: Quantitative real-time RT-PCR of hTERT mRNA expression (Ct, transcripts) in compound-treated cells; format: cell-based
How it was run: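 Read-out is cycle threshold, the cycle at which probe fluorescence released by Taq 5′-nuclease activity crosses a set level; Ct falls as hTERT mRNA rises. cDNA of treated and untreated cells was compared, with starting transcripts quantified against a known-cDNA standard curve.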

viable cells in culture [3] = test: Cell viability assay (CellTiter-Glo Luminescent Cell Viability Assay, ATP quantitation, percent of vehicle control)

SMILES | Average Cell Viability after 24 Hours (% DMSO) (viable cells in culture [1]) | Average Number of hTERT Transcripts [2] | Average Cell Viability after 24 Hours (% DMSO) (viable cells in culture [3]) | Average Number of hTERT Transcripts ([2]; quantitative real-time RT-PCR)
O=C(NCCc1c[nH]cn1)c1cc(-c2cccs2)on1 [compound 1523] | 87.71 % DMSO | 513.46 |  | 
Fc1cc(Br)cc2c1NC(c1cccnc1)C1CC=CC21 (stereo not shown) [compound 1457] | 57.76 % DMSO | 12.20 |  | 
Fc1cc(F)c2c(c1)C1C=CCC1C(c1cccnc1)N2 (stereo not shown) [compound 1463] | 62.06 % DMSO | 174.29 |  | 
Cc1nn2c(=O)cc(-c3ccc(Cl)cc3)[nH]c2c1-c1ccccc1 [compound 1156] |  |  | 61.07 % DMSO | 45.97
C/C(=N\NC(=O)c1c(O)ccc2ccccc12)c1ccccc1C(=O)O [compound 1531] |  | 32.70 | 110.91 % DMSO | 
CCC(C)NC(=S)Nc1ccc(F)cc1 (stereo not shown) [compound 1392] |  | 4.99 | 102.61 % DMSO | 
O=C(NCCOc1ccccc1)c1cc(-c2cccs2)on1 [compound 1508] |  | 59.45 | 94.22 % DMSO | 
COC(=O)CSc1nnc(-c2sc3ccccc3c2Cl)n1C [compound 1331] |  |  | 90.44 % DMSO | 32.92
O=S(=O)(Nc1cccc2cccnc12)N1CCCCCC1 [compound 1373] |  | 37.20 | 65.74 % DMSO | 
C=CCc1c(C)nc(SCC(=O)Nc2cc(Cl)cc(Cl)c2)[nH]c1=O [compound 1332] |  |  | 94.78 % DMSO | 12.68
Brc1n[nH]c2ncnc(N3CCCC3)c12 [compound 1249] |  |  | 77.92 % DMSO | 27.87
CCCCc1c(C)[nH]c2c(-c3ccc(Cl)cc3)c(C)nn2c1=O [compound 1167] |  |  | 97.27 % DMSO | 66.71
CCCN(CCC)S(=O)(=O)c1cccc(C(=O)Nc2nc(-c3ccccn3)cs2)c1 [compound 1175] |  |  | 74.43 % DMSO | 29.54
CCOC(=O)c1ccc(NC(=O)CSc2nnc(-c3ccc(OC)cc3)o2)cc1 [compound 1412] |  | 6.19 | 92.98 % DMSO | 
O=C(CS(=O)(=O)c1ccc(F)cc1)Nc1nc(-c2ccccn2)cs1 [compound 1203] |  |  | 73.09 % DMSO | 119.23
O=C(N/N=C/c1ccccn1)c1ccccc1 [compound 1265] |  |  | 81.94 % DMSO | 4.42

SMILES | Average Cell Viability after 24 Hours (% DMSO) (viable cells in culture [1]) | Average Number of hTERT Transcripts [2] | Average Cell Viability after 24 Hours (% DMSO) (viable cells in culture [3]) | Average Number of hTERT Transcripts ([2]; quantitative real-time RT-PCR)
O=C(Nc1ccc(OC(F)(F)C(F)F)cc1)c1ccccc1O [compound 1386] |  | 11.93 | 30.71 % DMSO | 
Cn1c2c(c(=O)[nH]c1=O)C(c1ccccc1)C1=C(N2)c2ccccc2C1=O (stereo not shown) [compound 1234] |  |  | 53.62 % DMSO | 62.81
CCCc1cc(=O)n2ncc(-c3ccc(Cl)cc3)c2[nH]1 [compound 1158] |  |  | 62.57 % DMSO | 71.35
Oc1c(CN2CCN(Cc3ccc4cccnc4c3O)CC2)ccc2cccnc12 [compound 1085] |  |  | 61.83 % DMSO | 59.41
c1ccc(-c2c(-c3ccccc3)n(Cc3ccco3)c3ncn4nc(-c5ccncc5)nc4c23)cc1 [compound 1304] |  |  | 89.74 % DMSO | 59.37
CC[C@@]1(C2O[C@@H](C3O[C@@](O)(CC)[C@H](C)C[C@@H]3C)C[C@@H]2C)CC[C@H]([C@]2(C)CCC3(C[C@H](O)[C@@H](C)[C@@H]([C@H](C)[C@@H](OC)[C@H](C)C(=O)O)O3)O2)O1 (stereo partly shown) [compound 1469] |  | 59.72 | 60.18 % DMSO | 
O=c1cc(Cc2ccccc2)[nH]c2c(-c3ccccc3)c(-c3ccccc3)nn12 [compound 1148] |  |  | 88.31 % DMSO | 108.34
O=C(CC(NC1CCCCC1)C(=O)O)Nc1cccc([N+](=O)[O-])c1 (stereo not shown) [compound 1438] |  | 8.29 | 97.89 % DMSO | 
O=C(NCCc1c[nH]c2c(OCc3ccccc3)cccc12)c1cc(-c2cccs2)on1 [compound 1498] |  | 16.50 | 94.63 % DMSO | 
O=C(c1cnn2c(C(F)(F)F)cc(-c3ccco3)nc12)N1CCCCC1 [compound 1471] |  | 148.88 | 90.01 % DMSO | 
Cc1nc(-n2nc(C)c(CCC(=O)N3CCCCC3)c2O)sc1C [compound 1137] |  |  | 81.10 % DMSO | 81.62
CC(C)(C)c1ccc(C(=O)N/N=C/c2c(O)ccc3ccccc23)cc1 [compound 1270] |  |  | 59.66 % DMSO | 34.64
COc1ccc(OC)c(NC(=O)CSc2ccc(-c3ccccn3)nn2)c1 [compound 1254] |  |  | 66.42 % DMSO | 47.45
Cc1nc(-n2nc(C)c(CC(=O)Nc3ccc(F)cc3)c2O)sc1C [compound 1128] |  |  | 86.93 % DMSO | 42.25
COc1ccc(-c2nnc(SCC(=O)Nc3ccc(S(N)(=O)=O)cc3)o2)cc1 [compound 1409] |  | 18.63 | 86.13 % DMSO | 
S=C(Nc1ccc(Oc2ccccc2)cc1)Nc1ccc(Cl)cc1Cl [compound 1540] |  | 9.11 | 68.10 % DMSO | 

Source: patent US12404304B1, “Telomerase reverse transcriptase (TERT) expression enhancing compounds and methods for using the same” (Sierra Sciences, LLC, priority 2007, dated 2025)
